According to the NIST ThermoML archive (doi:10.1021/je200213h):
± gives the expanded uncertainty stated by the source.

Tests used:
[1] = 101.33 kPa, Liquid, Capillary tube (Ostwald / Ubbelohde) method
[2] = xn = mol fraction of the nth substance listed; details: 101 kPa, Liquid, Capillary tube (Ostwald / Ubbelohde) method

CC(C)CCl [1-chloro-2-methylpropane]
[1]
Details	kinematic viscosity [m2/s]
283.15 K	5.8e-07 ± 4.9e-09
298.15 K	4.929e-07 ± 4.2e-09
313.15 K	4.363e-07 ± 3.8e-09

CC(C)CCl [1-chloro-2-methylpropane] + CCC(C)CC
kinematic viscosity [m2/s], [2]
Details	283.15 K	298.15 K	313.15 K
x2 = 0.0522	5.703e-07 ± 4.8e-09	4.87e-07 ± 4.2e-09	4.322e-07 ± 3.8e-09
x2 = 0.1013	5.618e-07 ± 4.7e-09	4.823e-07 ± 4.2e-09	4.275e-07 ± 3.8e-09
x2 = 0.2024	5.464e-07 ± 4.6e-09	4.717e-07 ± 4.1e-09	4.187e-07 ± 3.7e-09
x2 = 0.3032	5.324e-07 ± 4.5e-09	4.631e-07 ± 4e-09	4.113e-07 ± 3.6e-09
x2 = 0.4028	5.212e-07 ± 4.4e-09	4.55e-07 ± 4e-09	4.048e-07 ± 3.6e-09
x2 = 0.5056	5.115e-07 ± 4.4e-09	4.484e-07 ± 3.9e-09	3.994e-07 ± 3.6e-09
x2 = 0.604	5.043e-07 ± 4.3e-09	4.43e-07 ± 3.9e-09	3.951e-07 ± 3.5e-09
x2 = 0.7018	4.988e-07 ± 4.3e-09	4.396e-07 ± 3.8e-09	3.918e-07 ± 3.5e-09
x2 = 0.8002	4.949e-07 ± 4.2e-09	4.37e-07 ± 3.8e-09	3.896e-07 ± 3.5e-09
x2 = 0.898	4.93e-07 ± 4.2e-09	4.357e-07 ± 3.8e-09	3.881e-07 ± 3.5e-09
x2 = 0.9486	4.927e-07 ± 4.2e-09	4.355e-07 ± 3.8e-09	3.879e-07 ± 3.5e-09

CC(C)CCl [1-chloro-2-methylpropane] + CCCCCC
kinematic viscosity [m2/s], [2]
Details	283.15 K	298.15 K	313.15 K
x2 = 0.0512	5.712e-07 ± 4.8e-09	4.863e-07 ± 4.2e-09	4.32e-07 ± 3.8e-09
x2 = 0.0999	5.631e-07 ± 4.7e-09	4.817e-07 ± 4.2e-09	4.282e-07 ± 3.8e-09
x2 = 0.2003	5.468e-07 ± 4.6e-09	4.711e-07 ± 4.1e-09	4.196e-07 ± 3.7e-09
x2 = 0.2993	5.339e-07 ± 4.5e-09	4.633e-07 ± 4e-09	4.128e-07 ± 3.6e-09
x2 = 0.4005	5.239e-07 ± 4.5e-09	4.566e-07 ± 4e-09	4.077e-07 ± 3.6e-09
x2 = 0.4977	5.171e-07 ± 4.4e-09	4.517e-07 ± 3.9e-09	4.041e-07 ± 3.6e-09
x2 = 0.598	5.12e-07 ± 4.4e-09	4.478e-07 ± 3.9e-09	4.017e-07 ± 3.6e-09
x2 = 0.6993	5.089e-07 ± 4.3e-09	4.462e-07 ± 3.9e-09	4.01e-07 ± 3.6e-09
x2 = 0.799	5.077e-07 ± 4.3e-09	4.455e-07 ± 3.9e-09	4.002e-07 ± 3.6e-09
x2 = 0.8967	5.092e-07 ± 4.4e-09	4.457e-07 ± 3.9e-09	4.006e-07 ± 3.6e-09
x2 = 0.9472	5.103e-07 ± 4.4e-09	4.474e-07 ± 3.9e-09	4.023e-07 ± 3.6e-09

CC(C)CCl [1-chloro-2-methylpropane] + CCCCCCC
kinematic viscosity [m2/s], [2]
Details	283.15 K	298.15 K	313.15 K
x2 = 0.0507	5.818e-07 ± 4.9e-09	4.95e-07 ± 4.2e-09	4.381e-07 ± 3.8e-09
x2 = 0.0979	5.817e-07 ± 4.9e-09	4.97e-07 ± 4.3e-09	4.396e-07 ± 3.8e-09
x2 = 0.2004	5.851e-07 ± 4.9e-09	5.015e-07 ± 4.3e-09	4.438e-07 ± 3.9e-09
x2 = 0.3008	5.905e-07 ± 4.9e-09	5.064e-07 ± 4.3e-09	4.483e-07 ± 3.9e-09
x2 = 0.3993	5.97e-07 ± 5e-09	5.134e-07 ± 4.4e-09	4.536e-07 ± 3.9e-09
x2 = 0.4999	6.054e-07 ± 5.1e-09	5.215e-07 ± 4.4e-09	4.599e-07 ± 4e-09
x2 = 0.5973	6.156e-07 ± 5.1e-09	5.306e-07 ± 4.5e-09	4.663e-07 ± 4e-09
x2 = 0.6994	6.268e-07 ± 5.2e-09	5.403e-07 ± 4.6e-09	4.733e-07 ± 4.1e-09
x2 = 0.8006	6.397e-07 ± 5.3e-09	5.516e-07 ± 4.7e-09	4.809e-07 ± 4.1e-09
x2 = 0.9002	6.538e-07 ± 5.4e-09	5.633e-07 ± 4.7e-09	4.894e-07 ± 4.2e-09
x2 = 0.9491	6.615e-07 ± 5.5e-09	5.692e-07 ± 4.8e-09	4.94e-07 ± 4.2e-09

CCCCCl [1-chlorobutane]
[1]
Details	kinematic viscosity [m2/s]
283.15 K	5.564e-07 ± 4.7e-09
298.15 K	4.785e-07 ± 4.1e-09
313.15 K	4.216e-07 ± 3.7e-09

CCCCCl [1-chlorobutane] + CCCCCC
kinematic viscosity [m2/s], [2]
Details	283.15 K	298.15 K	313.15 K
x1 = 0.0508	5.501e-07 ± 4.7e-09	4.74e-07 ± 4.1e-09	4.182e-07 ± 3.7e-09
x1 = 0.0992	5.449e-07 ± 4.6e-09	4.701e-07 ± 4.1e-09	4.169e-07 ± 3.7e-09
x1 = 0.1972	5.351e-07 ± 4.5e-09	4.634e-07 ± 4e-09	4.118e-07 ± 3.6e-09
x1 = 0.2966	5.269e-07 ± 4.5e-09	4.577e-07 ± 4e-09	4.08e-07 ± 3.6e-09
x1 = 0.3976	5.198e-07 ± 4.4e-09	4.531e-07 ± 3.9e-09	4.048e-07 ± 3.6e-09
x1 = 0.5009	5.145e-07 ± 4.4e-09	4.495e-07 ± 3.9e-09	4.027e-07 ± 3.6e-09
x1 = 0.6006	5.112e-07 ± 4.4e-09	4.467e-07 ± 3.9e-09	4.011e-07 ± 3.6e-09
x1 = 0.6982	5.092e-07 ± 4.4e-09	4.451e-07 ± 3.9e-09	4.005e-07 ± 3.6e-09
x1 = 0.7972	5.082e-07 ± 4.3e-09	4.455e-07 ± 3.9e-09	4.01e-07 ± 3.6e-09
x1 = 0.8979	5.094e-07 ± 4.4e-09	4.464e-07 ± 3.9e-09	4.023e-07 ± 3.6e-09
x1 = 0.9472	5.103e-07 ± 4.4e-09	4.474e-07 ± 3.9e-09	4.027e-07 ± 3.6e-09
